# Experimental data as given in PubChem BioAssay AID1996.
# Settings: buffer; pH 7.4; 200.0 µM
row,Compound,solubility kinetic
1,Cc1ccc2c(c1)[nH]c1c(=O)n(Cc3ccco3)cnc12,0.5 µg/mL
2,O=C(NCC(O)c1ccc([N+](=O)[O-])cc1)C1=COCCO1 (stereo not given),> 44.1 µg/mL
3,CC(=O)Nc1ccc(S(=O)(=O)N2CCSc3ccccc32)cc1,49.6 µg/mL
4,O=C(NC12CC3CC(CC(C3)C1)C2)c1cccc(OC(F)F)c1,16.7 µg/mL
5,CCCCNC(=S)N1CCn2cccc2C1c1ccc(F)cc1 (stereo not given),10.3 µg/mL
6,CC(C)(CO)Nc1ncnc2onc(-c3ccc(F)cc3)c12,> 45.3 µg/mL
7,O=C(O)CCSC(=S)N1CCOCC1,29.3 µg/mL
8,CC1=CC(C)C(COC(=O)CN2CCCCC2)C(C)C1 (stereo not given),8.4 µg/mL
9,COc1ccc(NC(=O)COC(=O)CCc2ccc(S(=O)(=O)N3CCOCC3)cc2)cc1OC,62 µg/mL
10,COc1ccc(CCNC(=O)Cc2ccc(Cl)cc2)cc1OC,> 50.1 µg/mL
11,COC(=O)c1cc(Nc2cc(C)c3c(O)cccc3n2)cc(C(=O)OC)c1,< 0.4 µg/mL
12,Cc1cc(C(=O)COC(=O)c2ccc(F)cc2)c(C)n1C,1.2 µg/mL
13,O=C(N/C(=C\c1ccco1)C(=O)N1CCOCC1)c1ccco1,> 47.4 µg/mL
14,O=C(C1CCCC1)N1CCCC(Nc2ccccc2)C1 (stereo not given),35.9 µg/mL
15,CCN1C(=O)CC(c2cccnc2)=Nc2ccccc21,> 39.8 µg/mL
16,CC(C)(C)NC(=O)NC(=O)COC(=O)Cc1c(F)cccc1Cl,15.6 µg/mL
17,O=C(NCc1ccco1)C(=O)N1CCCC1,> 33.3 µg/mL
18,CCN(CC(=O)Nc1ccc(NC(C)=O)cc1)S(=O)(=O)/C=C/c1ccccc1,9.6 µg/mL
19,CCc1onc(C)c1C(=O)O,> 23.3 µg/mL
20,N#Cc1ccc(C(=O)OCC(=O)N2CCOCC2)cc1,> 41.1 µg/mL
21,COc1ccc(Nc2cc(Nc3cccc(OC)c3)ncn2)cc1,0.5 µg/mL
22,CC(=O)c1ccc(NC(=O)C2CCCC2)cc1,32.6 µg/mL
23,CCOC(=O)c1sc(S(C)(=O)=O)c2c1CC(C)(C)C/C2=N/O,> 51.8 µg/mL
24,CC(C)N1C(=O)C(=O)N(CC(=O)N2CCc3ccccc32)C1=O,> 47.3 µg/mL

row,Compound,solubility kinetic
1,O=C(Nc1ncc([N+](=O)[O-])s1)C1COc2ccccc2O1 (stereo not given),> 46.1 µg/mL
2,COC(=O)c1sccc1NC(=O)Nc1ccc(OC)cc1OC,15.4 µg/mL
3,O=C(c1ccc(S(=O)(=O)N2CCCC2)cc1)N1CCCCCC1,> 50.5 µg/mL
4,CCOC(=O)C1CCN(C(=O)c2cc3c(C)cc(C)cc3[nH]2)CC1,7.7 µg/mL
5,COc1cc(CN2CCSCC2)c([N+](=O)[O-])cc1OC,35.2 µg/mL
6,CN1CCN(S(=O)(=O)c2ccc3c(c2)oc(=O)n3C)CC1,> 46.7 µg/mL
7,Cn1c(N)c(C(=O)COC(=O)c2ccc(Cl)nc2)c(=O)n(C)c1=O,46.2 µg/mL
8,Cc1cc(C)c(NC(=O)C2CCCO2)c(C)c1 (stereo not given),> 35 µg/mL
9,COc1cc2nc(Cl)nc(NCCO)c2cc1OC,24.7 µg/mL
10,COc1c(N2CCN[C@H](C)C2)c(F)cc2c(=O)c(C(=O)O)cn(C3CC3)c12,38.6 µg/mL
11,CN(C)CCSc1nc2cc(S(=O)(=O)N3CCCCC3)ccc2o1,41.7 µg/mL
12,Cc1ccc2oc(=O)n(CC(=O)N3CCOCC3)c2c1,> 41.4 µg/mL
13,COc1cccc(NC(=O)COC(=O)c2sccc2C)c1,12.2 µg/mL
14,Cc1nc(SCC(N)=O)c([N+](=O)[O-])[nH]1,> 32.4 µg/mL
15,Cc1ccc(Cl)cc1NC(=O)CN1CCOCC1,> 40.3 µg/mL
16,O=C(CN1C(=O)COc2ccccc21)NCCCN1CCCC1,> 47.6 µg/mL
17,CCC1C(=O)NCCN1Cc1nc(-c2ccc(C)s2)oc1C (stereo not given),39.3 µg/mL
18,CC(=O)C1C(c2ccc(F)cc2)c2c(noc2C)CC1(C)O (stereo not given),> 45.5 µg/mL
19,CCS(=O)(=O)CCn1c([N+](=O)[O-])cnc1C,> 37.1 µg/mL
20,CCN(CC)S(=O)(=O)c1cccc(C(=O)Nc2cc(C)on2)c1,13.4 µg/mL
21,O=C(NCCCn1ccnc1)c1cc2c(s1)CCCC2,> 43.4 µg/mL
22,Cc1cc(C)c(NC(=S)N(CCc2ccncc2)C(C)C)c(C)c1,48.8 µg/mL
23,Cc1noc(C)c1C(=O)NC(Cc1c[nH]c2ccccc12)C(=O)O (stereo not given),> 49.1 µg/mL
24,CCCOC(=O)Nc1ccc(S(=O)(=O)Nc2ncccn2)cc1,> 50.5 µg/mL

row,Compound,solubility kinetic
1,CC(C)c1ccc(NC(=O)COC(=O)C2CC3C=CC2C3)cc1 (stereo not given),22.1 µg/mL
2,CCN(CC)c1ccc(NC(=O)c2ccccc2Br)cc1S(=O)(=O)Nc1ccccc1OC,0.6 µg/mL
3,Cc1ccc(CNC(=O)c2ccc(S(=O)(=O)N(C)C)cc2)n1C,48.6 µg/mL
4,COc1ccc(CNC(=O)COC(=O)c2ccc(S(=O)(=O)N3CCOCC3)cc2)cc1,9.2 µg/mL
5,COc1ccc(/C=C/C(=O)NCCCN2CCCCCC2)cc1,> 47.5 µg/mL
6,NS(=O)(=O)c1ccc(N2CCN(C(=O)c3ccco3)CC2)nc1,> 50.5 µg/mL
7,COc1cccc2cc(/C(=N/O)c3ccc(Br)cc3)oc12,< 0.7 µg/mL
8,CNc1ccc(C(=O)OCC(=O)NC(=O)NC2CCCCC2)cc1[N+](=O)[O-],1.7 µg/mL
9,Cc1cc(C)n2c(SCC(=O)Nc3cccc(S(N)(=O)=O)c3)nnc2n1,> 58.9 µg/mL
10,N/C(=N\OC(=O)Nc1cccc(C(F)(F)F)c1)c1ccno1,18.7 µg/mL
11,O=C(O)c1ccc(N2C(=O)CCCC2=O)cc1,25.9 µg/mL
12,Cc1cccc(C(=O)Nc2ccc(O)cc2C(=O)O)c1,> 40.7 µg/mL
13,Nc1ccc(NC(=O)c2cccs2)cc1,> 32.7 µg/mL
14,COc1ccc(C(=O)Nc2ccccc2C(=O)N2CCOCC2)cc1OC,46.7 µg/mL
15,Cc1cc(C)nc(NC(=O)/C=C/c2ccc(Cl)cc2)n1,42.1 µg/mL
16,CC(O)CNC12CC3CC(CC(C3)C1)C2 (stereo not given),29.6 µg/mL
17,CN1CCN(NS(=O)(=O)c2ccc(Cl)cc2)CC1,> 43.5 µg/mL
18,CC(=O)Nc1cc(O)cc(O)c1,> 25.1 µg/mL
19,COc1ccc(NC(=O)c2cc3ccc(O)cc3o/c2=N\O)cc1,< 0.3 µg/mL
20,Cc1cc(O)c(Sc2ccc(Cl)cc2)c(=O)[nH]1,> 40.2 µg/mL
21,CC(C)=CCN1CCN(Cc2cc3ccccc3[nH]2)CC1CCO (stereo not given),45.8 µg/mL
22,CN(Cc1cccc(F)c1)C(=O)c1ccc2c(=O)n3c(nc2c1)CCC3,49.8 µg/mL
23,Cc1cc(=O)oc2c(CN3CCCC3)c(O)ccc12,> 38.9 µg/mL

# The remaining lines, values ahead:
row,solubility kinetic,Compound
1,50 µg/mL,O=C1CN(C(=O)COC(=O)c2c(F)cccc2Cl)c2ccccc2N1
2,> 55.1 µg/mL,N#Cc1ccc(C(=O)OCC(=O)N2CCN(C(=O)c3ccco3)CC2)cc1
3,> 47.5 µg/mL,CCCOc1cccc(C(=O)NCCNC(=O)c2ccco2)c1
4,36.6 µg/mL,Cc1ccc(C(=O)NCCCNC(=O)c2ccc(Cl)cc2)cn1
5,20.2 µg/mL,N#Cc1c(NCc2ccccc2)ccnc1Cl
6,> 52.3 µg/mL,CC(NS(=O)(=O)c1ccc2ccccc2c1)c1ccccn1.Cl (stereo not given)
7,> 49.4 µg/mL,O=C(NC(CO)C(=O)OCc1ccccc1)OCc1ccccc1 (stereo not given)
8,16.5 µg/mL,Cc1ccc(C(=O)Nc2nccs2)cc1
9,> 51.1 µg/mL,Cc1onc(-c2ccccc2Cl)c1C(=O)N(C)Cc1ccccc1
10,42.4 µg/mL,Cc1ccc(NC(=O)COC(=O)Cn2cnc3ccccc32)c(C)c1
11,1.4 µg/mL,CN1C(c2ccccc2)CC(=NO)CC1c1ccccc1 (stereo not given)
12,7.2 µg/mL,CCc1ccnc(NS(=O)(=O)c2ccc3c(c2)OCCO3)c1
13,> 48.8 µg/mL,CC(NC(=O)CSc1nc2ccccc2n1C)c1ccccc1 (stereo not given)
14,> 43.4 µg/mL,O=S(=O)(c1ccccc1)N(CC1CO1)c1ccccc1 (stereo not given)
15,48.8 µg/mL,CCOc1ccc(NC(=S)N(CCc2ccncc2)C(C)C)cc1
16,0.5 µg/mL,Cc1ccc(C(=O)N(CC(C)C)c2nc3ccccc3s2)o1
17,24.8 µg/mL,COc1ccc(NC(=O)/C(C#N)=C/c2cccnc2)c(OC)c1
18,< 0.4 µg/mL,O=C(Nc1ccccc1O)c1ccc2c(c1)C(=O)N(c1ccccc1)C2=O
19,> 31.7 µg/mL,Cn1cccc1-c1nc2ccccc2n1C
20,> 42.9 µg/mL,Cc1ccccc1NC(=O)COC(=O)c1cc[n+]([O-])cc1
21,5.2 µg/mL,COc1ccc2c(=O)c(C(=O)NCCc3ccccc3)c[nH]c2c1
22,38 µg/mL,NC(=O)CC(CC(=O)OCc1ccccc1)c1ccccc1 (stereo not given)
23,0.3 µg/mL,CCc1c(C)nc(N)c(C#N)c1-c1ccccc1
24,2 µg/mL,CSc1ccccc1C(=O)Nc1cc([N+](=O)[O-])ccc1C
25,6.5 µg/mL,ClCc1cc2ccccc2nc1Cl

row,solubility kinetic,Compound
1,> 50.6 µg/mL,CCO/C=C1\C(=O)N(c2ccc(OCC)cc2)C(=O)c2ccccc21
2,> 39.6 µg/mL,COC(=O)c1ccccc1CC1SC(N)=NC1=O (stereo not given)
3,31.5 µg/mL,O=C(Cn1ccnc1)c1ccc(Cl)cc1
4,9.6 µg/mL,CC1(C)C(=O)Nc2ccccc2N1C(=O)COC(=O)c1cccs1
5,> 44.5 µg/mL,CCNC(=S)Nc1ccc(-c2nc3ccccc3[nH]2)cc1
6,> 46.6 µg/mL,COc1ccc(CNC2CCN(Cc3ccccc3)CC2)cc1
7,> 55.6 µg/mL,CC(=O)NCCc1nc2cc(NC(=O)c3ccccc3Cl)ccc2n1C
8,> 42.9 µg/mL,O=C(O)c1cc([N+](=O)[O-])ccc1NCCc1ccccc1
9,2.9 µg/mL,COc1cccc(N2CCN(C(=S)Nc3ccccc3)CC2)c1
10,1.3 µg/mL,CC(C)c1ccc(NC(=O)CC2Oc3ccccc3NC2=O)cc1 (stereo not given)
11,0.5 µg/mL,CC(=O)Nc1ccc(-c2csc(Nc3ccccn3)n2)cc1
12,3.7 µg/mL,Cc1cc2oc(C(=O)N3CCN(Cc4ccccc4)CC3)c(C)c2cc1C
13,2.3 µg/mL,CS(=O)(=O)N1CCc2cc(C(=O)Nc3ccccc3)ccc21
14,30.3 µg/mL,CN(Cc1ccccc1)C(=O)c1ccco1
15,51 µg/mL,O=C1N/C(=N/S(=O)(=O)Cc2ccccc2)S/C1=C/c1ccc2c(c1)OCO2
16,2.8 µg/mL,Cn1cccc1C(=O)OCC(=O)N1CCc2ccccc21
17,< 0.5 µg/mL,CCC(C(=O)Nc1ccc(C)cc1)c1ccccc1 (stereo not given)
18,> 52.7 µg/mL,N#CCCC1CCCC=C1N(Cc1ccccc1)C(=O)C(Cl)Cl (stereo not given)
19,5.6 µg/mL,CN1CC(c2ccccc2)Oc2ccccc2C1=S (stereo not given)
20,2.4 µg/mL,Cc1nc(Nc2ccccc2)sc1C(=O)c1ccc(F)cc1
21,0.8 µg/mL,O=C(Nc1ccc(NC(=O)c2cccnc2)cc1)c1ccccc1
22,< 0.6 µg/mL,CCCCNC(=O)C1c2ccccc2Oc2ccccc21
23,9.4 µg/mL,Nc1ccc(S(=O)(=O)Nc2ccc(C(=O)c3ccccc3)cc2)cc1
24,46.1 µg/mL,CCOc1c(Cl)cc(CNCc2ccncc2)cc1OC.Cl
